{"source": "patent US20030032824A1", "about": "“Meiosis regulating compounds” (priority 1996, published 2003)", "key": {"[1]": {"tested_on": "cumulus enclosed oocytes (CEO)", "experiment": "Oocyte test, inhibition of FF-MAS induced meiosis in cumulus enclosed oocytes (CEO)", "assay_type": "cell-based, mice", "experimental": "(§1) The ovaries were dissected out and the oocytes were isolated in Hx-medium (see below) under a stereo microscope by manual rupture of the follicles using a pair of 27 gauge needles. Spherical oocytes displaying an intact germinal vesicle (GV) were divided in cumulus enclosed oocytes (CEO) and naked oocytes (NO) and placed in α-minimum essential medium (α-MEM without ribonucleosides, Gibco BRL, Cat. No. 22561) supplemented with 3 mM hypoxanthine (Sigma Cat. No. H-9377), 8 mg/ml Human Serum Albumin (HSA, State Serum Institute, Denmark), 0.23 mM pyruvate (Sigma, Cat. No S-8636), 2 mM glutamine (Flow Cat. No. 16-801), 100 IU/mi penicillin and 100 μg/ml streptomycin (Flow, Cat No. 16-700). This medium was designated Hx-medium.\n(§2) The cultures were performed at 37° C. and 100% humidity with 5% CO2 in air. The culture time was 22-24 hours.\n(§3) By the end of the culture period, the number of oocytes with germinal vesicle (GV) or germinal vesicle breakdown (GVB) and those with polar body (PB) was counted using a stereo microscope or an inverted microscope with differential interference contrast equipment. The percentage of oocytes with GVB per total number of oocytes and the percentage of oocytes with PB per total number of oocytes was calculated in the test cultures and compared to the control culture.\n(§4) Germinal vesicle (GV) oocytes were obtained from immature FSH treated female mice using the same methods as described in Example 1 (see above). The oocytes were rinsed three times in Hx-medium and oocytes of uniform size were divided into groups of CEO and NO. […] CEO and NO were cultured in Hx-medium supplemented with 0.7-7.0 μM FF-MAS in co-culture with the test compounds in different concentrations in 4-well multidishes (Nunclon, Denmark) in which each well contained 0.4 ml of Hx-medium and 35-45 oocytes. One control (i.e., 35-45 oocytes cultured in Hx-medium containing FF-MAS with no addition of test compound) was always run simultaneously with the test cultures, which were supplemented with different concentrations of the compounds to be tested."}, "[2]": {"tested_on": "naked oocytes (NO)", "experiment": "Oocyte test, inhibition of FF-MAS induced meiosis in naked oocytes (NO)", "assay_type": "cell-based, mice", "experimental": "as §1, §2, §3, §4"}, "[3]": {"tested_on": "CEO and NO", "details": "CEO and NO in vitro, previously shown; cited from earlier work"}, "[4]": {"tested_on": "cumulus enclosed oocytes (CEO)", "experiment": "Oocyte test, activation of meiosis in cumulus enclosed oocytes (CEO) cultured in Hx-medium", "assay_type": "cell-based, mice", "experimental": "(§5) Oocytes were obtained from immature female mice (C57BI/6J×DBA/2J F1-hybrids, Bomholtgaard, Denmark) weighing 13-16 grams, that were kept under controlled lighting and temperature. The mice received an intra-peritoneal injection of 0.2 ml gonadotropins (Gonal-F, Serono, Solna, Sweden, containing 20 IU FSH, alternatively, Puregon, Organon, Swords, Ireland containing 20 IU FSH) and 48 hours later the animals were killed by cervical dislocation.\nas §1\n(§6) The oocytes were rinsed three times in Hx-medium and oocytes of uniform size were divided into groups of CEO and NO. CEO and NO were cultured in 4-well multidishes (Nunclon, Denmark) in which each well contained 0.4 ml of Hx-medium and 35-45 oocytes. […]\nas §3"}, "[5]": {"tested_on": "naked oocytes (NO)", "experiment": "Oocyte test, activation of meiosis in naked oocytes (NO) cultured in Hx-medium", "assay_type": "cell-based, mice", "experimental": "as §5, §1, §6, §3"}, "[6]": {"details": "FF-MAS 0.7 μM + 22R 25 μM (ratio 1:36)"}, "[7]": {"details": "FF-MAS 7 μM + 22R 12.5 μM (ratio 1:2)"}, "[8]": {"details": "FF-MAS 0.7 μM + 22R 13 μM (ratio 1:19)"}, "[9]": {"details": "FF-MAS 1.2 μM + 22R 25 μM (ratio 1:20)"}, "[10]": {"details": "FF-MAS 0.7 μM alone (control, no 22R)"}, "[11]": {"details": "FF-MAS 7 μM alone (control, no 22R)"}, "[12]": {"details": "FF-MAS 1.2 μM alone (control, no 22R)"}, "[13]": {"details": "CEO, test concentration 7.0 μM, culture 22-24 hours"}, "[14]": {"details": "NO, test concentration 7.0 μM, culture 22-24 hours"}}}
{"compound": "CC(C)CC[C@@H](O)[C@@H](C)[C@H]1CC[C@H]2[C@@H]3CC=C4C[C@@H](O)CC[C@]4(C)[C@H]3CC[C@]12C", "note": "[Example 22R, cholest-5-en-3β,(22R)-diol]", "values": [{"measurement": "% GVB", "setting": "[1]; [6]", "value": 6.9, "unit": "%"}, {"measurement": "% PB", "setting": "[1]; [6]", "value": 3.4, "unit": "%"}, {"measurement": "% GVB", "setting": "[1]; [7]", "value": 21, "unit": "%"}, {"measurement": "% PB", "setting": "[1]; [7]", "value": 3.5, "unit": "%"}, {"measurement": "antagonism of FF-MAS induced resumption of meiosis", "setting": "[1]; co-culture with FF-MAS", "value": "antagonises the FF-MAS induced resumption of meiosis in a dose-related manner"}, {"measurement": "% GVB", "setting": "[2]; [8]", "value": 16.9, "unit": "%"}, {"measurement": "% PB", "setting": "[2]; [8]", "value": 0, "unit": "%"}, {"measurement": "% GVB", "setting": "[2]; [6]", "value": 2.9, "unit": "%"}, {"measurement": "% PB", "setting": "[2]; [6]", "value": 0, "unit": "%"}, {"measurement": "% GVB", "setting": "[2]; [9]", "value": 4.6, "unit": "%"}, {"measurement": "% PB", "setting": "[2]; [9]", "value": 0, "unit": "%"}, {"measurement": "antagonism of FF-MAS induced resumption of meiosis", "setting": "[2]; co-culture with FF-MAS", "value": "antagonises the FF-MAS induced resumption of meiosis in a dose-related manner"}]}
{"compound": "CC(C)=CCC[C@@H](C)[C@H]1CC=C2C3=C(CC[C@@]21C)[C@@]1(C)CC[C@H](O)C(C)(C)C1CC3", "note": "(stereo partly drawn) [FF-MAS, 4,4-Dimethylcholest-8,14,24-trien-3β-ol, reference compound]", "values": [{"measurement": "induction of meiosis", "setting": "[3]", "value": "induce meiosis in CEO and NO in vitro"}, {"measurement": "% GVB", "setting": "[1]; [10]", "value": 21.7, "unit": "%"}, {"measurement": "% PB", "setting": "[1]; [10]", "value": 10.8, "unit": "%"}, {"measurement": "% GVB", "setting": "[1]; [11]", "value": 39.0, "unit": "%"}, {"measurement": "% PB", "setting": "[1]; [11]", "value": 18.9, "unit": "%"}, {"measurement": "% GVB", "setting": "[2]; [10]", "value": 33.0, "unit": "%"}, {"measurement": "% PB", "setting": "[2]; [10]", "value": 7.8, "unit": "%"}, {"measurement": "% GVB", "setting": "[2]; [12]", "value": 19.5, "unit": "%"}, {"measurement": "% PB", "setting": "[2]; [12]", "value": 9.5, "unit": "%"}]}
{"compound": "CC(C)CCC[C@@H](C)[C@H]1CC[C@H]2[C@@H]3CC=C4[C@@H](O)[C@@H](O)CC[C@]4(C)[C@H]3CC[C@]12C", "note": "[cholest-5-en-3β,4β-diol]", "values": [{"measurement": "% GVB", "setting": "[4]; [13]", "value": 44.4, "unit": "%"}, {"measurement": "% PB", "setting": "[4]; [13]", "value": 25.9, "unit": "%"}, {"measurement": "induction of meiosis", "setting": "[4]; cumulus enclosed oocyte cultured in vitro", "value": "induces meiosis"}, {"measurement": "% GVB", "setting": "[5]; [14]", "value": 50.2, "unit": "%"}, {"measurement": "% PB", "setting": "[5]; [14]", "value": 17.2, "unit": "%"}, {"measurement": "induction of meiosis", "setting": "[5]; naked oocyte cultured in vitro", "value": "induces meiosis"}]}
